Structures are written as SMILES. Read-outs that look alike come from different tables or passages of the source.

In experiment [1] the test system is primary human T-cells. The experiment is described as follows: Proliferation assay after 5 days (CellTiter-Glo, CD3 stimulation; PBS counter screen). The experiment is classed as cell-based. The conditions noted are these: CD3 stimulation; for Emax: 5 days, normalized to reference compound A1 as stimulator control = 100%, DMSO neutral control, read-out: Emax proliferation (% activation); for EC50: primary human T-cells, CellTiter-Glo after 5 days, EC50 of fitted sigmoidal curve, read-out: Tcell Proliferation CD3 EC50. The method, boiled down:
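Primary human T-cells, with or without CD3 stimulation, exposed to compounds for 5 days; cell number read as ATP by CellTiter-Glo 2.0 luminescence after 45 min equilibration and 15 min reagent incubation at room temperature. Compounds activating unstimulated cells or reducing viability were flagged.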

Another experiment has as its system MV-3 cells. The experiment is described as follows: T-cell - TCB - MV3 killing assay (MCSP-TCB, RFP object count by Incucyte). The conditions noted are these: 5 d; for Emax: normalized: MCSP-TCB only = neutral control, 20 μM reference compound A1 = 100%, read-out: MSCP TCB killing MV-3 cells 5 d Emax; for EC50: primary human T-cells + MCSP-TCB, MV-3 RFP cells, read-out: MSCP TCB killing MV-3 cells 5 d EC50. The experiment is classed as cell-based, human.

In experiment [2] the test system is primary human T-cells.
Description: As readouts for T-cell activation, IL2 secretion after 24 hours and proliferation after 5 days was measured. Increases in IL2 secretion and proliferation upon compound treatment were assessed as the % of the maximum of reference compound A1. […] As a counter screen and to make sure that no unwanted TCR-independent activation was triggered, PBS conditions were run for all compounds.
For coating of plates, PBS++ with PBS−− or PBS++ with CD3 antibody (concentration depending on donor and determined by CD3 titrations) was added 100 μl/well to Poly-D Lysine coated 96-well plates. Plates were sealed and incubated at room temperature for 3 hours on a table-top rocking platform. After incubation, plates were washed once with PBS−− and filled with 40 μl/well culture medium only. Compounds were then added (see next section) to medium only plates. After 3 hours of culturing the T-cells, cells were filtered through a cell strainer (Miltenyi Biotech, #130-041-407), counted again and concentration was adjusted to 1.25 Mio/ml.
Cells were then seeded 80 μl/well to the 40 μl/well including dispensed compounds according to plate layout. By adding cells, compounds were further diluted 1:3, and resulting in 100 k cells/120 μl/well. After 24 hours 40 μl of supernatant was collected carefully from the top while not disturbing the cells and transferred into a round bottom 96 well plate. Collected and frozen supernatant was used for detection of IL2 using the IL-2 Human ProQuantum Immunoassay Kit (Invitrogen) or using the Human IL-2 ELISA Kit (Thermo Fisher).
Compounds were added in a 5 or 6pt dose response with the Tecan D300e Digital Dispenser, all conditions 3 times more concentrated than the end-concentration, since cells are added afterwards (80 μl cells to 40 μl prepared medium with treatment). The DR was starting at 20 μM or 10 μM final top concentration and a dilution factor of 3.333. The positive control was the reference compound A1 that was added in a dose response as well, additionally to 3 wells of only 20 μM representing the positive stimulator control. All wells were normalized with DMSO to a final concentration of 0.6% (0.2% end-concentration).
The immunoassay is done following the manufacturer's manual (Invitrogen, #A35603). Additional information: For the immunoassay, MicroAmp™ EnduraPlate™ Optical 384-Well plates are used. Frozen supernatant is thawed and centrifuged for 5 minutes at 1000×g, both steps at 4° C. After centrifugation, required sample amount is taken from the top, and in a separate LightCycler V-bottom plate (working plate) diluted with assay dilution buffer, dilution factor depending on the PBS or CD3 condition but at least 1:3. IL-2 standard and blanks are prepared in the same V-bottom plate, standard with a range of 0.0128-5000 pg/ml (extended version). After preparation, 5 μl of sample dilutions or standard/blanks are transferred to the optical 384-well plate (assay plate) and the 10 μl reaction protocol is being followed. For measurement, the QuantStudio 12K Flex system is used.
ELISA is done following the manufacturer's manual (Thermo Fisher Scientific, #88-7025-88). Additional information: For the ELISA Nunc MaxiSorp 96 well plates are used. Frozen supernatant is thawed and centrifuged for 5 minutes at 1000×g, both steps at 4° C. After that, required sample amount is taken from the top, and in a separate V-bottom plate diluted with ELISA diluent, dilution factor depending on the PBS or CD3 condition. IL-2 standard and blanks are prepared in the same V-bottom plate. After preparation, 50 μl of sample dilutions and 100 μl of standard or blanks are transferred to the Nunc plates.
CD3 and PBS plates were analysed separately in Genedata Screener using Roche Normalization PCT_POS_CTRL with DMSO set as Neutral Control and 20 μM of the reference compound A1 set as Stimulator Control/100%.
For CD3 conditions EC50 and Emax of the fitted sigmoidal curve were reported.

Turning to `CN1CC(c2nc(-c3cc4c(cc3F)S(=O)(=O)C[C@H](N)C(=O)N4Cc3ccc(Cl)cc3)no2)CC(F)(F)C1` (stereo partly drawn) [Example 323, (3R)-3-amino-5-[(4-chlorophenyl)methyl]-7-[5-(5,5-difluoro-1-methyl-3-piperidyl)-1,2,4-oxadiazol-3-yl]-8-fluoro-1,1-dioxo-2,3-dihydro-1λ^6,5-benzothiazepin-4-one], the Emax in the experiment with primary human T-cells [1] (Homo sapiens, T-cell, 120 h) turned out to be 109%; in the experiment with MV-3 cells (Homo sapiens, MV-3, 120 h), 100%. Moreover, the EC50 amounted to 229 nM in the experiment with primary human T-cells [1] (Homo sapiens, T-cell, 120 h); 90 nM in the experiment with MV-3 cells; 403 nM in the experiment with primary human T-cells [2].

`CC(C)(C)c1nnc(-c2cc3c(cc2F)S(=O)(=O)C[C@H](N)C(=O)N3Cc2ccc(OC(F)(F)C(F)F)cc2)o1` [Example 232, (3R)-3-amino-7-(5-tert-butyl-1,3,4-oxadiazol-2-yl)-8-fluoro-1,1-dioxo-5-[[4-(1,1,2,2-tetrafluoroethoxy)phenyl]methyl]-2,3-dihydro-1λ^6,5-benzothiazepin-4-one]: the Emax with primary human T-cells [1] (Homo sapiens, T-cell, 120 h) was found to be 127%; in the experiment on MV-3 cells (Homo sapiens, MV-3, 120 h), 83%. Besides, the EC50 in the experiment on primary human T-cells [1] (Homo sapiens, T-cell, 120 h) amounted to 57.6 nM; in the experiment on MV-3 cells it was 30 nM; in the experiment on primary human T-cells [2], 37 nM.

With `CC1(Nc2nnc(-c3cc4c(cc3F)S(=O)(=O)C[C@H](N)C(=O)N4Cc3ccc(Cl)cc3)o2)CC(F)(F)C1` [Example 461, (3R)-3-amino-5-[(4-chlorophenyl)methyl]-7-[5-[(3,3-difluoro-1-methyl-cyclobutyl)amino]-1,3,4-oxadiazol-2-yl]-8-fluoro-1,1-dioxo-2,3-dihydro-1λ^6,5-benzothiazepin-4-one], the Emax is 106% in the experiment with primary human T-cells [1] (Homo sapiens, T-cell, 120 h) and 91% with MV-3 cells (Homo sapiens, MV-3, 120 h). Further, the EC50 in the experiment with primary human T-cells [1] (Homo sapiens, T-cell, 120 h) turned out to be 395 nM; in the experiment with MV-3 cells, 310 nM; in the experiment on primary human T-cells [2], 455 nM.

Regarding `N[C@H]1CS(=O)(=O)c2ccc(-c3nnc(NC4CCCC(F)(F)C4)o3)cc2N(Cc2ccc(Cl)cc2)C1=O` (stereo partly drawn) [Example 401, (3R)-3-amino-5-[(4-chlorophenyl)methyl]-7-[5-[(3,3-difluorocyclohexyl)amino]-1,3,4-oxadiazol-2-yl]-1,1-dioxo-2,3-dihydro-1λ^6,5-benzothiazepin-4-one], the Emax in the experiment with primary human T-cells [1] (Homo sapiens, T-cell, 120 h) was 69%; with MV-3 cells (Homo sapiens, MV-3, 120 h) it was 92%. In addition, the EC50 was 1130 nM with primary human T-cells [1] (Homo sapiens, T-cell, 120 h); 1540 nM in the experiment on MV-3 cells; 446 nM in the experiment with primary human T-cells [2].

Take `N[C@H]1CS(=O)(=O)c2cc(F)c(-c3nnc(N4CCOCC4)o3)cc2N(Cc2ccc(Cl)cc2)C1=O` [Example 454, (3R)-3-amino-5-[(4-chlorophenyl)methyl]-8-fluoro-7-(5-morpholino-1,3,4-oxadiazol-2-yl)-1,1-dioxo-2,3-dihydro-1λ^6,5-benzothiazepin-4-one]: the Emax in the experiment with primary human T-cells [1] (Homo sapiens, T-cell, 120 h) was 129%; in the experiment with MV-3 cells (Homo sapiens, MV-3, 120 h), 100%. The EC50 with primary human T-cells [1] (Homo sapiens, T-cell, 120 h) is 309 nM; in the experiment on MV-3 cells it was 70 nM; with primary human T-cells [2], 97.7 nM.

Take `N[C@H]1C[S+]([O-])c2cc(F)c(-c3noc(N4CCOC5(CC5)C4)n3)cc2N(Cc2ccc(Cl)cc2)C1=O` (single isomer, unassigned; epimer a) [Example 211]: the EC50 stood at 326 nM in the experiment on primary human T-cells [1]; 45 nM in the experiment on MV-3 cells (Homo sapiens, MV-3, 120 h); 793 nM with primary human T-cells [2]. In addition, the Emax in the experiment with MV-3 cells (Homo sapiens, MV-3, 120 h) is 86%.

`CC(C)(C)c1nc(-c2cc3c(cc2F)S(=O)(=O)C[C@H](N)C(=O)N3Cc2ccc(Cl)cc2)no1` [Example 289, (3R)-3-amino-7-(5-tert-butyl-1,2,4-oxadiazol-3-yl)-5-[(4-chlorophenyl)methyl]-8-fluoro-1,1-dioxo-2,3-dihydro-1λ^6,5-benzothiazepin-4-one]: the Emax in the experiment on primary human T-cells [1] (Homo sapiens, T-cell, 120 h) is 124%; in the experiment with MV-3 cells (Homo sapiens, MV-3, 120 h), 97%. The EC50 in the experiment with primary human T-cells [1] (Homo sapiens, T-cell, 120 h) was 187 nM; with MV-3 cells (Homo sapiens, MV-3, 120 h), 120 nM; in the experiment on primary human T-cells [2] it was 158 nM.
